The record followed here is patent US9744222B2, “Peptide for vaccine” (Circassia Limited, priority 2007, dated 2017).

Series [1] can be described thus: Precipitation in aqueous solution of the binding assay. The format is physicochemical. An excerpt: (§1) This is a characteristic of promiscuous HLA-DRB1* binders.
Series [2] concerns the target DRB1*0301 (Homo sapiens, UniProt P01903+P01911, A100K/A102G/A103R/A169T/F55Y/I96L/K41T/L162R/M171V/P40S/Q125H/Q178H/Q39Y/R42S/S66N/T106N/T262R/W38E/Y61H). The series is described as follows: Competitive MHC class II binding assay. To be noted: control peptide Myco. tuberculosis/leprae hsp 65 2-16.
Description: as §1

The target of series [3] is DQA1*0102/DQB1*0602 (Homo sapiens, UniProt P01909+P01920, A157G/A45G/C70R/E118A/E183D/E77G/F83G/G63E/H151Q/H199R/H252R/H253Q/I129T/I235V/I88M/INS77G/K197Q/L117V/L119F/L178F/L71W/L74F/L85Q/L91A/L98M/N214S/P87R/Q116E/Q76K/R102G/R240Q/R75S/R78G/S102Y/S185I/S41F/S97I/T121G/T122I/T172A/T86R/V229M/V68A/V73E/Y34C/Y41F/Y58L). Nature of the series: Competitive MHC class II binding assay. The note with it: control peptide Human Insulin B 1-15. As for the experimental part: as §1
In addition, to identify lower affinity binders, the assay was also carried out under less stringent conditions. All the Der p binding peptides were seen to have a high ratio when tested against this allotype, showing they were low affinity binders compared to the control peptide. The DQA1*0102/DQB1*0602 binding assay uses a peptide from the B-chain of human insulin which is of lower affinity compared to those used in the DR assays. This dictates that the DQ assay is very sensitive and tends to produce very low ratio values for the strongest binders to this MHC Class II allotype. This sensitivity also accounts for the relatively higher number of DQ binding peptides within the panel screened.

Series [4] relates to human MHC class II allotypes. The series is described as follows: Competitive MHC class II binding assay, all allotypes. The note with it: competition assay, any allotype.
Description: as §1
This is of significance as purities were seen to vary from 60-90%. This would have a considerable effect on the ability of a peptide to compete if it is relatively impure. […] Therefore, if purity is taken into consideration, they may in fact have an equivalent affinity to a peptide of a higher purity.

Series [5] has as its target DRB1*0701 (Homo sapiens, UniProt P01903+P01911, A100R/A102G/A103Q/D57E/D86V/E43K/F76Y/K127E/L162R/M171V/P40G/Q125H/Q99D/R33Q/R42Y/R54Q/S133A/S66F/T210M/V115G/Y107V/Y59L/Y89S). Nature of the series: Competitive MHC class II binding assay. To be noted: control peptide Influenza haemagglutinin 307-319.
For series [6], the target named is DRB1*1101 (Homo sapiens, UniProt P01903+P01911, A100R/A169T/A87E/I96F/K41T/L162R/M171V/P40S/Q125H/Q178H/Q39Y/Q99D/R42S/S66Y/T262R/V115G/W38E). The series is described as follows: Competitive MHC class II binding assay. The note with it: control peptide Influenza haemagglutinin 307-319.
Series [7] concerns the target DRB1*1501 (Homo sapiens, UniProt P01903+P01911). The series is described as follows: Competitive MHC class II binding assay. To be noted: control peptide Human myelin basic protein 85-99.
Series [8] is described as follows: Solubility pre-screen of peptides. The note with it: pre-screened for solubility in an aqueous, acidic milieu; YES/NO.
Series [9] relates to PBMC's. The series is described as follows: Cytokine release assay (IL-13, IFN-gamma). The format is cell-based, human. To be noted: IL-13 or IFN-gamma response greater than 100 pg/ml. As for the experimental part:
Cytokine secretion profiles from PBMC's are analysed in response to the peptide stimulation using the peptides from Example 3.
Thus, an individual was considered to have responded to a peptide if cells from that individual yielded a response greater than 100 pg/ml for either […] or IFN-gamma.

The mark [10] stands for this setting: lowest concentration at which an insoluble white precipitate is seen in the aqueous solution of the binding assay.
[11] abbreviates: lowest concentration at which an insoluble white precipitate is seen, value in brackets.

Where a SMILES comes first, the peptide text is derived from it.

Consider DGLEVDVPGIDPNACH [HDM23A], for which the Precipitation in assay result in series [1] (setting [10]) was “None”. Moreover, the “Relative binding, ratio of own IC50 to that of the control peptide, DRB1*0301” value in [2] was 347. Also, the “Relative binding, ratio of own IC50 to that of the control peptide, DQA1*0102 QB1*0602” value in [3] amounted to 0.76. Moreover, the “MHC Class II binding (in words)” value in series [4] is given as “low affinity binding”.

As for CIIHRGKPFQLEA [HDM20], the Precipitation in assay entry in series [1] (setting [10]) is reported as “None”. Moreover, in series [5], the “Relative binding, ratio of own IC50 to that of the control peptide, DRB1*0701” value came out at 1.1. Further, the “Relative binding, ratio of own IC50 to that of the control peptide, DRB1*1101” value in [6] amounted to 28. Further, the “Relative binding, ratio of own IC50 to that of the control peptide, DRB1*1501” value in [7] was found to be 242.11. The “Relative binding, ratio of own IC50 to that of the control peptide, DQA1*0102 QB1*0602” value in series [3] came out at 2.37. In series [8], the Solubility test entry is “YES”.

HDDVVSMEYDLAYKL [HDM39A]: the Precipitation in assay in series [1] (setting [10]) was 10000 µM; in [1] (setting [11]), “(1.8 mg/ml)”.

Turning to VSMEYDLAYKLGDLH [HDM40A], the Precipitation in assay in series [1] (setting [10]) is 10000 µM; in series [1] (setting [11]), “(1.8 mg/ml)”.

In the case of `CC[C@H](C)[C@H](NC(=O)[C@H](CCCCN)NC(=O)[C@@H](N)CC(N)=O)C(=O)N[C@@H](CCCNC(=N)N)C(=O)N[C@@H](CCC(=O)O)C(=O)N[C@@H](C)C(=O)N[C@@H](CC(C)C)C(=O)N[C@@H](C)C(=O)N[C@@H](CCC(N)=O)C(=O)N[C@H](C(=O)N[C@@H](Cc1c[nH]cn1)C(=O)N[C@@H](CO)C(=O)N[C@@H](C)C(=O)O)[C@@H](C)O` [HDM08] (H-NKIREALAQTHSA-OH; N-terminus and C-terminus assumed), in [8], the Solubility test entry is “YES”.

On to `CC[C@H](C)[C@H](N)C(=O)N[C@@H](CC(=O)O)C(=O)N[C@@H](CC(C)C)C(=O)N[C@@H](CCCCN)C(=O)NCC(=O)N[C@@H](CCC(=O)O)C(=O)N[C@@H](CC(C)C)C(=O)N[C@@H](CC(=O)O)C(=O)N[C@@H](CCSC)C(=O)N[C@@H](CCCNC(=N)N)C(=O)N[C@@H](CC(N)=O)C(=O)N[C@H](C(=O)N[C@@H](CCC(N)=O)C(=O)O)[C@@H](C)CC` [HDM32] (H-IDLKGELDMRNIQ-OH; N-terminus and C-terminus assumed), for which the Solubility test result in [8] is on record as “YES”.

As to `CC[C@H](C)[C@H](N)C(=O)N[C@@H](CC(=O)O)C(=O)N[C@@H](CC(C)C)C(=O)N[C@@H](CCCNC(=N)N)C(=O)N[C@@H](CCC(N)=O)C(=O)N[C@@H](CCSC)C(=O)N[C@@H](CCCNC(=N)N)C(=O)N[C@H](C(=O)N[C@H](C(=O)N[C@H](C(=O)N1CCC[C@H]1C(=O)N[C@H](C(=O)N[C@@H](CCCNC(=N)N)C(=O)O)[C@@H](C)CC)[C@@H](C)O)C(C)C)[C@@H](C)O` [HDM01] (H-IDLRQMRTVTPIR-OH; N-terminus and C-terminus assumed), the Solubility test entry in series [8] is “YES”.

SYYRYVAREQS [HDM205]: in [9], the “Ranking of peptides by percentage of responders (in words)” value is on record as “top five peptides”.

Turning to `C[C@@H](O)[C@H](NC(=O)[C@H](CC(=O)O)NC(=O)[C@H](Cc1c[nH]c2ccccc12)NC(=O)[C@H](CO)NC(=O)[C@H](CC(N)=O)NC(=O)[C@@H](N)CCCNC(=N)N)C(=O)N[C@@H](CC(N)=O)C(=O)N[C@@H](Cc1c[nH]c2ccccc12)C(=O)NCC(=O)N[C@@H](CC(=O)O)C(=O)N[C@@H](CC(N)=O)C(=O)NCC(=O)N[C@@H](Cc1ccc(O)cc1)C(=O)NCC(=O)O` [HDM16A] (H-RNSWDTNWGDNGYG-OH; N-terminus and C-terminus assumed), the Solubility test result in series [8] is reported as “YES”.

`CC[C@H](C)[C@H](N)C(=O)N[C@@H](CC(=O)O)C(=O)N[C@@H](CC(C)C)C(=O)N[C@@H](CCCCN)C(=O)NCC(=O)N[C@@H](CCC(=O)O)C(=O)N[C@@H](CC(C)C)C(=O)N[C@@H](CC(=O)O)C(=O)N[C@@H](CCSC)C(=O)N[C@@H](CCCNC(=N)N)C(=O)N[C@@H](CC(N)=O)C(=O)N[C@H](C(=O)N[C@@H](CCC(N)=O)C(=O)N[C@H](C(=O)N[C@@H](CCCNC(=N)N)C(=O)O)C(C)C)[C@@H](C)CC` [HDM32A] (H-IDLKGELDMRNIQVR-OH; N-terminus and C-terminus assumed): the Solubility test result in [8] is “YES”.

For `CC[C@H](C)[C@H](NC(=O)[C@@H]1CCCN1C(=O)[C@@H](NC(=O)[C@@H](NC(=O)[C@@H](NC(=O)[C@@H](N)CCCNC(=N)N)[C@@H](C)O)C(C)C)[C@@H](C)O)C(=O)N[C@@H](CCCNC(=N)N)C(=O)N[C@@H](CCSC)C(=O)N[C@@H](CCC(N)=O)C(=O)NCC(=O)NCC(=O)N[C@@H](CS)C(=O)NCC(=O)O` [HDM02] (H-RTVTPIRMQGGCG-OH; N-terminus and C-terminus assumed), the Solubility test entry in [8] was “YES”.

For the compound `CSCC[C@H](NC(=O)[C@@H]1CCCN1C(=O)[C@H](CC(=O)O)NC(=O)[C@H](Cc1ccccc1)NC(=O)[C@@H](NC(=O)[C@H](CCC(=O)O)NC(=O)[C@H](CO)NC(=O)[C@@H](N)CCCCN)[C@@H](C)O)C(=O)N[C@@H](CCCCN)C(=O)N[C@H](C(=O)N1CCC[C@H]1C(=O)N[C@@H](CC(=O)O)C(=O)N[C@@H](Cc1c[nH]cn1)C(=O)N[C@@H](CO)C(=O)N[C@@H](CC(=O)O)C(=O)O)C(C)C` [HDM29B] (H-KSETFDPMKVPDHSD-OH; N-terminus and C-terminus assumed), in series [8], the Solubility test result is reported as “YES”.

As to `CC[C@H](C)[C@H](NC(=O)CNC(=O)[C@@H](NC(=O)[C@@H](N)Cc1c[nH]cn1)[C@@H](C)CC)C(=O)N[C@H](C(=O)N[C@@H](CC(=O)O)C(=O)N[C@@H](CC(C)C)C(=O)N[C@@H](CCCCN)C(=O)NCC(=O)N[C@@H](CCC(=O)O)C(=O)N[C@@H](CC(C)C)C(=O)N[C@@H](CC(=O)O)C(=O)N[C@@H](CCSC)C(=O)N[C@@H](CCCNC(=N)N)C(=O)N[C@@H](CC(N)=O)C(=O)O)[C@@H](C)CC` [HDM31A] (H-HIGIIDLKGELDMRN-OH; N-terminus and C-terminus assumed), in [8], the Solubility test result is listed as “YES”.
